For orientation: MIC means the smallest concentration in the dilution series that meets the test's criterion for growth inhibition.

Like-named read-outs stand apart in the source and are kept apart here.

For seven compounds, MIC results are on record in US11839212B2, “Synergistic pesticidal compositions and methods for delivery of insecticidal active ingredients” (0903608 B.C. Ltd., priority 2018, dated 2023).

Holding throughout (assay): Synergistic Growth Inhibition Assay (MIC and FIC index, 96-well, resazurin)
What all share (type): cell-based
On the technique in general: Alamar Blue is a resazurin reagent that responds to reducing activity.

One test deals with Sclerotinia sclerotiorum. To be noted: Sclerotinia sclerotiorum, […], Compound B alone, read-out: MIC (B). In a few lines:
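Checkerboard of pesticidal active ingredient combined with C6–C10 (or C11/C12) aliphatic acids in serial dilutions against Sclerotinia sclerotiorum. Growth scored by resazurin colour change plus visual inspection; FIC index is the sum of each agent's concentration divided by its MIC alone, with 1 indicating additivity.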

Another test deals with Fusarium oxysporum. The note with it: Fusarium oxysporum, Compound B alone. The method, boiled down: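 Checkerboard dilutions of pesticidal active plus C6–C10 (or C11/C12) aliphatic acid in 96-well plates; growth scored by resazurin colour change, optionally visual.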
The subject of the next test is Alternaria solani. To be noted: Alternaria solani, […], Compound B alone, 7 days incubation, read-out: MIC (B). As to the method:
In some embodiments, the synergistic action between the pesticidal active ingredient, and the at least one C6-C10 (or alternatively C11 or C12) saturated or unsaturated aliphatic acid components of the pesticidal compositions according to embodiments of the present disclosure was tested using a Synergistic Growth Inhibition Assay, which is derived from and related to a checkerboard assay as is known in the art for testing of combinations of antimicrobial agents. In the Synergistic Growth Inhibition Assay used in accordance with some embodiments of the present disclosure, multiple dilutions of combinations of pesticidal active ingredient and at least one C6-C10 saturated or unsaturated aliphatic acid agents are tested in individual cells for inhibitory activity against a target pest or pathogenic organism. In one such embodiment, the combinations of pesticidal active ingredient and C6-C10 (or alternatively C11 or C12) saturated or unsaturated aliphatic acid agents may preferably be tested in decreasing concentrations. In a further such embodiment, the combinations of pesticidal active ingredient and C6-C10 (or alternatively C11 or C12) saturated or unsaturated aliphatic acid agents may be tested in increasing concentrations. These multiple combinations of the pesticidal active ingredient and at least one C6-C10 (or alternatively C11 or C12) saturated or unsaturated aliphatic acid agents may be prepared in 96-well microtiter plates. In one such embodiment, the Synergistic Growth Inhibition Assay then comprises rows which each contain progressively decreasing concentrations of the pesticidal active ingredient and one or more C6-C10 (or alternatively C11 or C12) saturated or unsaturated aliphatic acid agents to test for the MIC of the agents in combination at which growth of the target pest or pathogen is inhibited. Thus, each well of the microtiter plate is a unique combination of the two agents, at which inhibitory efficacy of the combination against the target pest or pathogen can be determined.
In one embodiment according to the present disclosure, for each row of microtiter cells in the Synergistic Growth Inhibition Assay, the FIC index is calculated from the lowest concentration of the pesticidal active ingredient and one or more C6-C10 saturated or unsaturated aliphatic acid agents necessary to inhibit growth of a target pest or pathogen. The FIC of each component is derived by dividing the concentration of the agent present in that well of the microtiter plate by the minimal inhibitory concentration (MIC) needed of that agent alone to inhibit growth of the target pest or pathogen. The FIC index is then the sum of these values for both agents in that well of the microtiter plate. […] Fractional inhibitory concentration indices may then used as measure of synergy. […] When the FIC index is equal to 1, the combination is additive.
Then, serial dilutions of these initial compositions in successive wells in the row of the microtiter plate were used to assay the pesticidal composition under the same conditions to determine the concentration of the composition combining the two agents corresponding to the microtiter well in which growth inhibition of the target pest or organism ceases.
A culture of the representative fungal pathogen, namely Fusarium oxysporum, Botrytis cinerea, or Sclerotinia sclerotiorum, for example, is grown to exponential phase in potato dextrose broth (PDB).

For a further test, the system named is Botrytis cinerea. To be noted: Botrytis cinerea, 48 h, Compound B alone, 48 hours incubation, read-out: MIC (B). In a few lines:
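Checkerboard microdilution of pesticidal active ingredient combined with C6–C10 (or C11/C12) aliphatic acid against Botrytis cinerea, with growth read by resazurin colour change plus visual check. FIC index = sum of each agent's concentration in the inhibiting well divided by its MIC alone; 1 denotes additivity.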

The mark [1] stands for this setting: 24 h, Table 1, 24 hour incubation, read-out: MIC(B).
Where [2] appears, read: 24 h, Table 2, 24 hour incubation, read-out: MIC (B).
Setting [3] is: 48 h, Table 27, 48 hours incubation, read-out: MIC (B).
Where [4] appears, read: 48 h, Table 28, 48 hours incubation, read-out: MIC (B).
Where [5] appears, read: 48 h, Table 30, 48 hours incubation, read-out: MIC (B).
[6] abbreviates: 48 h, Table 31, 48 hours incubation, read-out: MIC (B).
Setting [7] is: 24 h, Table 3, 24 hour incubation, read-out: MIC(B).
The mark [8] stands for this setting: 24 h, Table 4, 24 hour incubation, read-out: MIC (B).
Where [9] appears, read: 48 h, Table 29, 48 hours incubation, read-out: MIC (B).
Setting [10] is: 48 h, Table 32, 48 hours incubation, read-out: MIC (B).

As for `CC/C=C/CC(=O)O` [Trans-3-hexenoic acid, trans-3-hexenoic acid], the MIC in the test with Sclerotinia sclerotiorum (7 days incubation) came out at 312 µg/mL; in the test on Sclerotinia sclerotiorum (Table 33, 7 days incubation) it was 156 µg/mL; in the test with Sclerotinia sclerotiorum (Table 34, 7 days incubation), 156 µg/mL; in the test with Sclerotinia sclerotiorum (Table 35, 7 days incubation), 156 µg/mL; with Sclerotinia sclerotiorum (Table 41, 7 days incubation) it was 156 µg/mL; in the test with Fusarium oxysporum (setting [1]), 312 µg/mL. Further, the MIC in the test on Fusarium oxysporum (setting [2]) worked out at 312 µg/mL; in the test on Fusarium oxysporum (setting [3]), 312 µg/mL; with Fusarium oxysporum (setting [4]) it was 312 µg/mL; in the test on Fusarium oxysporum (setting [5]), 312 µg/mL; in the test with Fusarium oxysporum (setting [6]) it was 156 µg/mL; in the test with Alternaria solani (Table 60) it was 312 µg/mL. Besides, the MIC amounted to 156 µg/mL in the test on Botrytis cinerea (Table 43), 156 µg/mL with Botrytis cinerea (Table 44) and 312 µg/mL with Botrytis cinerea (Table 45).
On to `CCCCCCC=CCC(=O)O` [3-Decenoic acid, 3-decenoic acid], for which the MIC in the test on Sclerotinia sclerotiorum (7 days incubation) was 156 µg/mL; in the test on Sclerotinia sclerotiorum (Table 33, 7 days incubation) it was 39.1 µg/mL; with Sclerotinia sclerotiorum (Table 35, 7 days incubation) it was 39.1 µg/mL; with Sclerotinia sclerotiorum (Table 38, 7 days incubation), 39.1 µg/mL; with Sclerotinia sclerotiorum (Table 40, 7 days incubation), 78.1 µg/mL; in the test with Sclerotinia sclerotiorum (Table 41, 7 days incubation) it was 78.1 µg/mL. In addition, the MIC in the test on Fusarium oxysporum (setting [7]) came to 73.4 µg/mL; in the test with Fusarium oxysporum (setting [8]), 73.4 µg/mL; in the test with Fusarium oxysporum (setting [3]), 312 µg/mL; in the test on Fusarium oxysporum (setting [4]), 78.1 µg/mL; in the test with Fusarium oxysporum (setting [9]), 156 µg/mL; in the test on Fusarium oxysporum (setting [6]), 78.1 µg/mL. Also, the MIC in the test with Alternaria solani (Table 60), in the test with Botrytis cinerea (Table 43), with Botrytis cinerea (Table 44), in the test on Botrytis cinerea (Table 45), with Botrytis cinerea (Table 47) and in the test with Botrytis cinerea (Table 49) was 78.1 µg/mL each time. Also, the minimum inhibitory concentration (MIC) in the test on Botrytis cinerea (Table 50) was 78.1 µg/mL; in the test on Botrytis cinerea (Table 53) it was 39.1 µg/mL; in the test on Botrytis cinerea (Table 54), 39.1 µg/mL; in the test on Botrytis cinerea (Table 56), 78.1 µg/mL; in the test on Botrytis cinerea (Table 58), 156 µg/mL.
As to `CCCCCC/C=C/C(=O)O` [Trans-2-nonenoic acid], the minimum inhibitory concentration (MIC) with Sclerotinia sclerotiorum (7 days incubation) was determined as 78.1 µg/mL; in the test on Sclerotinia sclerotiorum (Table 33, 7 days incubation), 19.5 µg/mL; in the test on Sclerotinia sclerotiorum (Table 36, 7 days incubation) it was 39.1 µg/mL; with Sclerotinia sclerotiorum (Table 37, 7 days incubation), 78.1 µg/mL; in the test on Sclerotinia sclerotiorum (Table 38, 7 days incubation) it was 39.1 µg/mL; with Sclerotinia sclerotiorum (Table 39, 7 days incubation), 19.5 µg/mL. Also, the minimal inhibitory concentration (MIC) in the test on Sclerotinia sclerotiorum (Table 40, 7 days incubation) amounted to 19.5 µg/mL; with Sclerotinia sclerotiorum (Table 41, 7 days incubation), 39.1 µg/mL; with Fusarium oxysporum (setting [4]), 156 µg/mL; in the test on Fusarium oxysporum (setting [5]) it was 312 µg/mL; with Fusarium oxysporum (setting [10]), 312 µg/mL; in the test on Alternaria solani, 156 µg/mL. The MIC stood at 78.1 µg/mL with Alternaria solani (Table 60); 78.1 µg/mL in the test with Botrytis cinerea (Table 43); 39.1 µg/mL in the test on Botrytis cinerea (Table 44); 39.1 µg/mL with Botrytis cinerea (Table 45); 19.5 µg/mL with Botrytis cinerea (Table 46); 78.1 µg/mL in the test on Botrytis cinerea (Table 47). The MIC with Botrytis cinerea (Table 49) and in the test on Botrytis cinerea (Table 56) was 156 µg/mL in each case.
Take `CCCC=CCC(=O)O` [3-Heptenoic acid]: the MIC is 156 µg/mL in the test on Sclerotinia sclerotiorum (7 days incubation); 78.1 µg/mL with Sclerotinia sclerotiorum (Table 33, 7 days incubation); 78.1 µg/mL in the test on Sclerotinia sclerotiorum (Table 35, 7 days incubation); 78.1 µg/mL in the test on Sclerotinia sclerotiorum (Table 39, 7 days incubation); 78.1 µg/mL with Sclerotinia sclerotiorum (Table 41, 7 days incubation); 156 µg/mL in the test on Fusarium oxysporum (setting [3]). For the same compound, the MIC in the test with Fusarium oxysporum (setting [4]) was found to be 156 µg/mL; with Fusarium oxysporum (setting [9]), 156 µg/mL; in the test on Fusarium oxysporum (setting [5]), 156 µg/mL; in the test on Fusarium oxysporum (setting [6]), 156 µg/mL; in the test with Alternaria solani (Table 60), 312 µg/mL; with Botrytis cinerea (Table 43), 78.1 µg/mL. Further, the MIC in the test on Botrytis cinerea (Table 44), with Botrytis cinerea (Table 47) and with Botrytis cinerea (Table 49) was 78.1 µg/mL throughout.
As to `CCCCCCC/C=C/C(=O)O` [Trans-2-decenoic acid, trans-2-decenoic acid], the minimal inhibitory concentration (MIC) in the test on Sclerotinia sclerotiorum (7 days incubation) is 19.5 µg/mL; with Sclerotinia sclerotiorum (Table 33, 7 days incubation), 19.5 µg/mL; in the test with Sclerotinia sclerotiorum (Table 34, 7 days incubation), 19.5 µg/mL; in the test with Sclerotinia sclerotiorum (Table 35, 7 days incubation), 9.77 µg/mL; in the test with Sclerotinia sclerotiorum (Table 37, 7 days incubation) it was 39.1 µg/mL; in the test with Sclerotinia sclerotiorum (Table 38, 7 days incubation) it was 19.5 µg/mL. Also, the MIC in the test with Sclerotinia sclerotiorum (Table 39, 7 days incubation) was 19.5 µg/mL; in the test with Sclerotinia sclerotiorum (Table 40, 7 days incubation), 19.5 µg/mL; in the test on Sclerotinia sclerotiorum (Table 42, incubation 7 days), 19.5 µg/mL; in the test with Fusarium oxysporum (setting [7]) it was 36.2 µg/mL; with Fusarium oxysporum (setting [8]), 36.2 µg/mL; with Fusarium oxysporum (setting [5]) it was 78.1 µg/mL. In addition, the MIC in the test on Fusarium oxysporum (setting [10]) turned out to be 156 µg/mL; with Alternaria solani, 39.1 µg/mL; in the test on Alternaria solani (Table 60) it was 78.1 µg/mL; in the test with Botrytis cinerea (Table 43) it was 19.5 µg/mL; in the test with Botrytis cinerea (Table 44), 78.1 µg/mL; with Botrytis cinerea (Table 45) it was 39.1 µg/mL. In addition, the MIC in the test with Botrytis cinerea (Table 49) came to 78.1 µg/mL; with Botrytis cinerea (Table 50), 39.1 µg/mL; in the test with Botrytis cinerea (Table 51), 19.5 µg/mL; with Botrytis cinerea (Table 56), 78.1 µg/mL; in the test on Botrytis cinerea (Table 58) it was 156 µg/mL.
For `CCCCCC=CCC(=O)O` [3-Nonenoic acid], the minimum inhibitory concentration (MIC) in the test with Sclerotinia sclerotiorum (7 days incubation) was found to be 78.1 µg/mL; in the test with Sclerotinia sclerotiorum (Table 33, 7 days incubation), 19.5 µg/mL; in the test on Sclerotinia sclerotiorum (Table 35, 7 days incubation), 39.1 µg/mL; in the test on Sclerotinia sclerotiorum (Table 36, 7 days incubation) it was 39.1 µg/mL; in the test on Sclerotinia sclerotiorum (Table 37, 7 days incubation), 78.1 µg/mL; with Sclerotinia sclerotiorum (Table 38, 7 days incubation), 78.1 µg/mL. In addition, the minimal inhibitory concentration (MIC) worked out at 39.1 µg/mL in the test with Sclerotinia sclerotiorum (Table 41, 7 days incubation); 156 µg/mL with Fusarium oxysporum (setting [10]); 78.1 µg/mL in the test with Alternaria solani (Table 60); 78.1 µg/mL in the test with Botrytis cinerea (Table 43); 78.1 µg/mL in the test with Botrytis cinerea (Table 44); 78.1 µg/mL in the test on Botrytis cinerea (Table 45). Also, the minimal inhibitory concentration (MIC) in the test with Botrytis cinerea (Table 47), with Botrytis cinerea (Table 48), in the test with Botrytis cinerea (Table 49) and with Botrytis cinerea (Table 54) was 78.1 µg/mL in each case.
Regarding `C/C=C/C=C/C(=O)O` [(2E,4E)-2,4-hexadienoic acid], the MIC in the test on Sclerotinia sclerotiorum (Table 33, 7 days incubation) amounted to 125 µg/mL; in the test on Fusarium oxysporum (setting [1]), 125 µg/mL; with Fusarium oxysporum (setting [2]), 125 µg/mL; in the test with Fusarium oxysporum (setting [3]) it was 25 µg/mL; in the test on Alternaria solani (Table 60), 125 µg/mL; with Botrytis cinerea (Table 43) it was 62.5 µg/mL. In addition, the minimal inhibitory concentration (MIC) with Botrytis cinerea (Table 44) came out at 62.5 µg/mL; in the test with Botrytis cinerea (Table 56) it was 125 µg/mL; in the test with Botrytis cinerea (Table 58) it was 250 µg/mL.
